Data: patent US8940728B2 (priority 2012, dated 2015)
Read-outs that look alike come from different tables or passages of the source.

Legend:
[1] = CNS penetration across the brain blood barrier; details: in vivo
Protocol: Mice are dosed with compounds. Brain to blood ratios are determined by HPLC and LC/MS/MS analysis following oral administration of the test compounds in mice.

[2] = target: T1, α3β4 nicotinic receptor subtype (Homo sapiens, UniProt P30926+P32297); assay: cell-based
T1 construct: SH-SYSY cells predominantly express the α3β4 nicotinic receptor subtype; endogenous in cells; host or cells: SH-SYSY (SH-SY5Y) cells
Source text: (§1) The HEK293 (a3b4, a4b2 and a7) and SH-SYSY cell lines (a3b4) expressing nAChRs are used. Validated assays optimized with respect to sensitivity, dynamic range, signal intensity and stability for chemical probe validation and SAR refinement are used.

a3b4 nAChRs [3] = target: T2, a3b4 nAChRs (Homo sapiens, UniProt P30926+P32297); assay: FLIPR Ca+2 flux assay, epibatidine-induced calcium response, SH-SYSY cells; type: cell-based
Protocol: as §1
(§2) Nicotinic functional assays are performed using the Molecular Devices FLIPR® Calcium 5 Assay Kit. HEK293 cells overexpressing α3β4, α4β2 or α7 (50,000 cells per well in 100 μl growth media) and are plated in clear bottom black walled 96-well microplates and incubated for 24-48 hours at 37° C., 5% CO2 until a 80-90% confluent monolayer is formed. On the day of the assay, 100 μl of Calcium 5 Dye is added to each well. Following addition of dye, cells are incubated at 25° C. for 60 minutes. Following dye loading, 50 μl of a 5× solution of reference or test compound of appropriate concentration range (0.01-30 μM), prepared in 20 mM HEPES pH 7.4 in HBSS, is added to each well. Plates are then transferred to the Molecular Devices Flexstation® which transfers 50 μL of a 5× solution (500 nM) of epibatine to each well to initiate the Ca+2 flux. […] The RFU (relative fluorescence units) in the presence of the test or reference compounds is then expressed on the percent scale. The percent inhibition of epibatidine induced Ca^+2 flux is calculated as follows: % inhibition=100%−% RFU (relative fluorescence units). […]

a3b4 nAChRs [4] = target: T2, a3b4 nAChRs; assay: Relative potency on epibatidine-induced calcium response at a3b4 nAChRs; type: cell-based
Protocol: as §1
Nicotinic functional assays are performed using the Molecular Devices FLIPR® Calcium 5 Assay Kit. HEK293 cells overexpressing α3β4, α4β2 or α7 (50,000 cells per well in 100 μl growth media) and are plated in clear bottom black walled 96-well microplates and incubated for 24-48 hours at 37° C., 5% CO2 until a 80-90% confluent monolayer is formed. On the day of the assay, 100 μl of Calcium 5 Dye is added to each well. Following addition of dye, cells are incubated at 25° C. for 60 minutes. Following dye loading, 50 μl of a 5× solution of reference or test compound of appropriate concentration range (0.01-30 μM), prepared in 20 mM HEPES pH 7.4 in HBSS, is added to each well. Plates are then transferred to the Molecular Devices Flexstation® which transfers 50 μL of a 5× solution (500 nM) of epibatine to each well to initiate the Ca+2 flux. Additional wells (in quadruplicate) are prepared with no added test or reference ligand for measurement of 100% flux. The RFU (relative fluorescence units) in the presence of the test or reference compounds is then expressed on the percent scale. The percent inhibition of epibatidine induced Ca^+2 flux is calculated as follows: % inhibition=100%−% RFU (relative fluorescence units). The IC50 values for reference and test compounds are obtained by fitting normalized RFU data using Graphpad Prism software.

5-HT transporter = 5-HT transporter (Homo sapiens, UniProt P31645); assay: 5-HT transporter radioligand binding
Protocol: (§3) Established radioligand binding methods are used to evaluate the ability of the compounds to block reuptake of serotonin and dopamine in membrane preparations of synaptosomes. Equilibrium binding affinity values is determined for each compound at opioid receptors (μ and κ subtypes) and biogenic amine transporters (DAT and SERT). Where possible, binding experiments utilize membranes derived from CHO or HEK293 cells engineered to overexpress the human form of the receptor or transporter of interest. Radiolabeling of opioid receptors, and biogenic amine transporters utilizes conventional radioligands, buffers and incubation conditions according to published assays.
(§4) Test compounds, reference compounds and the radioligand (Kd value) are added to binding buffer. Assays are run with test or reference compound over a range of concentration (0.0001-10 uM) in triplicate using a 96-well sample plate containing radioligands specific for the target receptor or transporter. […] Bound radioactivity is counted in a Microbeta scintillation counter. Total bound radioactivity is estimated from triplicate wells containing no test or reference compound, together with nonspecific binding and filter blanks. The average bound radioactivity in the presence of the test compounds is expressed % inhibition=100%−% radioactivity bound. […]

[5] = target: T3, kappa opioid receptor (kOR) (Homo sapiens, UniProt P41145); assay: Kappa opioid receptor radioligand binding
T3 construct: expressed in transfected cells; host or cells: CHO or HEK293
Protocol: as §3, §4

a3b4 nAChRs [6] = target: T2, a3b4 nAChRs; assay: FLIPR Ca+2 flux assay, epibatidine-induced calcium response, A3B4-HEK cells; type: cell-based
Protocol: as §1, §2

[7] = Binding panel of over 50 receptors, transporters, ion channels, second messengers, growth factor receptors and enzymes; details: at physiologically relevant concentrations
Source text: The association between cigarette smoking and the presence and severity of suicidal behavior across major psychiatric disorders may be related to lower brain serotonin function in smokers with depression).

mu opioid receptor (mOR) = target: T4, mu opioid receptor (mOR) (Homo sapiens, UniProt P35372); assay: Mu opioid receptor radioligand binding
T4 construct: expressed in transfected cells; host or cells: CHO or HEK293
Protocol: as §3, §4

T1 sequence (P32297 32-505): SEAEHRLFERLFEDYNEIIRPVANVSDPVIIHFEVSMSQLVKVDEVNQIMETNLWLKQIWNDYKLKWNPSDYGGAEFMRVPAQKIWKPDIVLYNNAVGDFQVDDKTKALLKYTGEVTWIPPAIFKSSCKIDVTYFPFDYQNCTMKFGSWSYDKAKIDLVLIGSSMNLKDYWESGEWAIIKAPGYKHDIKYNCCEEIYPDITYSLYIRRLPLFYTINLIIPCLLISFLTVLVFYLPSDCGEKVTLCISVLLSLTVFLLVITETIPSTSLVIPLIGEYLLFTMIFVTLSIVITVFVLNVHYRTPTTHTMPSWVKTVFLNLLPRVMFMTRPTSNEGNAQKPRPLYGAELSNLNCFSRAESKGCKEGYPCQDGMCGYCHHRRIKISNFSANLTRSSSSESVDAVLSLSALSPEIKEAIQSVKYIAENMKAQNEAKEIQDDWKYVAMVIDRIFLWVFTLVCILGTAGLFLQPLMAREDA
T1 sequence (P30926 22-498): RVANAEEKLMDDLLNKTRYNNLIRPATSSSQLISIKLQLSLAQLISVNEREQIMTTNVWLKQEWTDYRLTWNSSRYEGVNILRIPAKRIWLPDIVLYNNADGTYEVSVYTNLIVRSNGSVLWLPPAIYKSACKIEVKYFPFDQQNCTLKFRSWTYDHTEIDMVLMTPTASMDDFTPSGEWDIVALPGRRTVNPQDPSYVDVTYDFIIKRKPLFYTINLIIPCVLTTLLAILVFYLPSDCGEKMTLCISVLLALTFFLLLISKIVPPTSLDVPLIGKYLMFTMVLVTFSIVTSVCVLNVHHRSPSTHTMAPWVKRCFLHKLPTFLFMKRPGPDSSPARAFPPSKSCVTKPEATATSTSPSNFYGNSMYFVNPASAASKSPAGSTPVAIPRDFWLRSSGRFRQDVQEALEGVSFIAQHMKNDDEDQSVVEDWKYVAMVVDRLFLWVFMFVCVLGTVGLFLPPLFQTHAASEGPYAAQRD
T2 sequence (P30926 22-498): as above
T2 sequence (P32297 32-505): as the sequence (P32297 32-505) above
Chain of 5-HT transporter (P31645 whole entry): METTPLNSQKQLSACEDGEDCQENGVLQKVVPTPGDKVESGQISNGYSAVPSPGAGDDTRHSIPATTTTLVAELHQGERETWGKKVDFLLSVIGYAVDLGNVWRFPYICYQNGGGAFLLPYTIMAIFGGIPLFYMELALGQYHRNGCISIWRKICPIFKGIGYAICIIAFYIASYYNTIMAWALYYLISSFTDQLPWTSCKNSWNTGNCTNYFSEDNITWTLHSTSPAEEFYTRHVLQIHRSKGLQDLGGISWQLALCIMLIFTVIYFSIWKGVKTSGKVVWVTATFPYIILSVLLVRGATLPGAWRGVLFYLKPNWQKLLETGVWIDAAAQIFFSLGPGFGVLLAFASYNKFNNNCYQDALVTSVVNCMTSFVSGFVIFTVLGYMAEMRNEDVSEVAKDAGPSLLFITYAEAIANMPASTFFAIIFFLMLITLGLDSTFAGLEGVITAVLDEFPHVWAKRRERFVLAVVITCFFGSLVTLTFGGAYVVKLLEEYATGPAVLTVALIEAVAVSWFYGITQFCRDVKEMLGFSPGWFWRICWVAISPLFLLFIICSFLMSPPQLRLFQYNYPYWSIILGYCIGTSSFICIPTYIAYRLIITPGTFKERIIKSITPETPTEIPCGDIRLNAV
T4 sequence (P35372 whole entry): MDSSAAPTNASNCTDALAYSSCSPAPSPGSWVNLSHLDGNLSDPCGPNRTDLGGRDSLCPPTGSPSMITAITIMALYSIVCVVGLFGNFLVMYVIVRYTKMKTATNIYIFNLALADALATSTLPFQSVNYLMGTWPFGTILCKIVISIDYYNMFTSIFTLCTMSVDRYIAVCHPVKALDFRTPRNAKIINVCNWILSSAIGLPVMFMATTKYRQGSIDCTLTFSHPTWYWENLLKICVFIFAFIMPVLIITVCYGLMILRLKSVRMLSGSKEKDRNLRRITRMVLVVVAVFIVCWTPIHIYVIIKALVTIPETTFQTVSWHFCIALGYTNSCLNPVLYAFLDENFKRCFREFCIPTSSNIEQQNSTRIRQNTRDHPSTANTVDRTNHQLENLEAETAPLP
T3 sequence (P41145 whole entry): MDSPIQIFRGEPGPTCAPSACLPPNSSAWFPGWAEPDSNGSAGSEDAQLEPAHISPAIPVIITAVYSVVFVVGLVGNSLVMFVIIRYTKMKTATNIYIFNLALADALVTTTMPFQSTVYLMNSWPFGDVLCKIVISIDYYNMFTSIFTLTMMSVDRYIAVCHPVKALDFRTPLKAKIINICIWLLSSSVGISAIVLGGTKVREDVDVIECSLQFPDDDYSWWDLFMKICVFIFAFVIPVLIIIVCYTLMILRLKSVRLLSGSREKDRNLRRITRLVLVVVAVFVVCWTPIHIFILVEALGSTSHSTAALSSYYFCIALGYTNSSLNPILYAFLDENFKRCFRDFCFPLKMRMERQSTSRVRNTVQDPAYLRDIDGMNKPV

Compound	Crossing of the BBB and concentration in brain [1]	IC50 ([2]; Caliper, read-out: IC50 (uM) Caliper, inhibition of epibatidine-induced calcium response)	IC50 ([2]; SH-SYSY cells, preliminary studies by Caliper Life Sciences, read-out: IC50 as antagonist for epibatine induced Ca+2 flux)	IC50 (a3b4 nAChRs [3]; SH-SYSY cells, read-out: IC50 (uM) SH-SYSY, inhibition of epibatidine-induced calcium response)	IC50 (a3b4 nAChRs [4]; reference value for the ratios of Table 4, read-out: Potency of 18-MC at a3b4 nAChRs taken as reference)	Ratio from 18-MC (relative potency at a3b4 nAChRs) (a3b4 nAChRs [4]; relative to 18-MC = 1 (4 uM))	IC50 ([2]; IC50 (uM) Caliper, inhibition of epibatidine-induced calcium response, Caliper)	IC50 ([2]; IC50 as antagonist for epibatine induced Ca+2 flux, SH-SYSY cells, preliminary studies by Caliper Life Sciences)	Affinity to the 5-HT transporter (5-HT transporter)	Affinity at kappa opioid receptors [5]	IC50 (a3b4 nAChRs [6])	Targets bound in the panel [7]	IC50 (a3b4 nAChRs [3])	Affinity at mu opioid receptors (mu opioid receptor (mOR))	Potency as inhibitor of epibatidine-induced calcium response compared with 18-MC and noribogaine (a3b4 nAChRs [4]; in words)
COCC[C@H]1CC2CN3CCc4c([nH]c5ccccc45)[C@](C(=O)OC)(C2)[C@H]13 [Compound 18-MC, 18-methoxycoronaridine]	cross the BBB and reach micromolar concentrations in brain	3.9 µM	3.89 µM	3.9 µM	4 µM	1									
CC[C@H]1CC2C[C@H]3c4[nH]c5ccc(O)cc5c4CCN(C2)C13 [Noribogaine, 12-hydroxyibogamine]	cross the BBB and reach micromolar concentrations in brain						1 µM	0.462 µM	50 nM	1 µM	18 µM	only bound to SERT, DAT, mu and kappa opioid receptors	0.3 µM	900 nM	
Ibogaine															more potent inhibitors than 18-MC
